According to PubChem BioAssay (NCI):
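Step 1: Grow cells in 96-well plates. Step 2: Expose to compound for 48 hours at 5 concentrations. Step 3: Interpolate endpoints linearly; if unreached, use highest concentration. GI50 marks 50% less growth. TGI: total growth inhibition.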

Experiments:
Assay in all cases: NCI-60 cell line screen, 48 h
786-0 renal = test system: 786-0 renal
A498 renal = test system: A498 renal
A549 NSCLC = test system: A549 NSCLC
ACHN renal = test system: ACHN renal
BT-549 breast = test system: BT-549 breast
CAKI-1 renal = test system: CAKI-1 renal
CCRF-CEM leukemia = test system: CCRF-CEM leukemia
COLO 205 colon = test system: COLO 205 colon
DU-145 prostate = test system: DU-145 prostate
EKVX NSCLC = test system: EKVX NSCLC
HCC-2998 colon = test system: HCC-2998 colon
HCT-116 colon = test system: HCT-116 colon
HCT-15 colon = test system: HCT-15 colon
HL-60(TB) leukemia = test system: HL-60(TB) leukemia
HOP-62 NSCLC = test system: HOP-62 NSCLC
HOP-92 NSCLC = test system: HOP-92 NSCLC
HS 578T breast = test system: HS 578T breast
HT29 colon = test system: HT29 colon
IGROV1 ovarian = test system: IGROV1 ovarian
K-562 leukemia = test system: K-562 leukemia
KM12 colon = test system: KM12 colon
LOX IMVI melanoma = test system: LOX IMVI melanoma
M14 melanoma = test system: M14 melanoma
MALME-3M melanoma = test system: MALME-3M melanoma
MCF7 breast = test system: MCF7 breast
MDA-MB-231 breast = test system: MDA-MB-231 breast
MDA-MB-435 = test system: MDA-MB-435
MOLT-4 leukemia = test system: MOLT-4 leukemia
NCI-H226 lung = test system: NCI-H226 lung
NCI-H23 lung = test system: NCI-H23 lung
NCI-H460 lung = test system: NCI-H460 lung
NCI-H522 lung = test system: NCI-H522 lung
NCI/ADR-RES ovarian = test system: NCI/ADR-RES ovarian
OVCAR-3 ovarian = test system: OVCAR-3 ovarian
OVCAR-4 ovarian = test system: OVCAR-4 ovarian
OVCAR-5 ovarian = test system: OVCAR-5 ovarian
OVCAR-8 ovarian = test system: OVCAR-8 ovarian
PC-3 prostate = test system: PC-3 prostate
RPMI-8226 leukemia = test system: RPMI-8226 leukemia
SF-268 CNS = test system: SF-268 CNS
SF-295 CNS = test system: SF-295 CNS
SF-539 CNS = test system: SF-539 CNS
SK-MEL-2 melanoma = test system: SK-MEL-2 melanoma
SK-MEL-28 melanoma = test system: SK-MEL-28 melanoma
SK-MEL-5 melanoma = test system: SK-MEL-5 melanoma
SK-OV-3 ovarian = test system: SK-OV-3 ovarian
SN12C renal = test system: SN12C renal
SNB-19 CNS = test system: SNB-19 CNS
SNB-75 CNS = test system: SNB-75 CNS
SW-620 colon = test system: SW-620 colon
T-47D breast = test system: T-47D breast
TK-10 renal = test system: TK-10 renal
U251 CNS = test system: U251 CNS
UACC-257 melanoma = test system: UACC-257 melanoma
UACC-62 melanoma = test system: UACC-62 melanoma
UO-31 renal = test system: UO-31 renal

**Q.** Which results are given for `C[C@]12CC[C@H]3[C@@H](CC=C4C[C@@H](O)CC[C@@]43C)[C@@H]1C/C(=C\c1cccc(OCCN3CCOCC3)c1)[C@@H]2O`?
**A.** GI50 (786-0 renal): 50.7 µM; TGI (786-0 renal): > 100 µM; GI50 (A498 renal): > 100 µM; TGI (A498 renal): > 100 µM; GI50 (A549 NSCLC): > 100 µM; TGI (A549 NSCLC): > 100 µM; GI50 (ACHN renal): > 100 µM; TGI (ACHN renal): > 100 µM; GI50 (BT-549 breast): 27 µM; TGI (BT-549 breast): 95.1 µM; GI50 (CAKI-1 renal): > 100 µM; TGI (CAKI-1 renal): > 100 µM; GI50 (CCRF-CEM leukemia): 41.1 µM; TGI (CCRF-CEM leukemia): > 100 µM; GI50 (COLO 205 colon): 7.39 µM; TGI (COLO 205 colon): 58.3 µM; GI50 (DU-145 prostate): > 100 µM; TGI (DU-145 prostate): > 100 µM; GI50 (EKVX NSCLC): > 100 µM; TGI (EKVX NSCLC): > 100 µM; GI50 (HCC-2998 colon): > 100 µM; TGI (HCC-2998 colon): > 100 µM; GI50 (HCT-116 colon): 80.6 µM; TGI (HCT-116 colon): > 100 µM; GI50 (HCT-15 colon): 38.9 µM; TGI (HCT-15 colon): > 100 µM; GI50 (HL-60(TB) leukemia): 21.5 µM; TGI (HL-60(TB) leukemia): > 100 µM; GI50 (HOP-62 NSCLC): > 100 µM; TGI (HOP-62 NSCLC): > 100 µM; GI50 (HOP-92 NSCLC): > 100 µM; TGI (HOP-92 NSCLC): > 100 µM; GI50 (HS 578T breast): > 100 µM; TGI (HS 578T breast): > 100 µM; GI50 (HT29 colon): 7.36 µM; TGI (HT29 colon): > 100 µM; GI50 (IGROV1 ovarian): 46 µM; TGI (IGROV1 ovarian): > 100 µM; GI50 (K-562 leukemia): 11.6 µM; TGI (K-562 leukemia): 40.8 µM; GI50 (KM12 colon): > 100 µM; TGI (KM12 colon): > 100 µM; GI50 (LOX IMVI melanoma): > 100 µM; TGI (LOX IMVI melanoma): > 100 µM; GI50 (M14 melanoma): 24.3 µM; TGI (M14 melanoma): 69.2 µM; GI50 (MALME-3M melanoma): 29.8 µM; TGI (MALME-3M melanoma): 65.1 µM; GI50 (MCF7 breast): > 100 µM; TGI (MCF7 breast): > 100 µM; GI50 (MDA-MB-231 breast): 87.6 µM; TGI (MDA-MB-231 breast): > 100 µM; GI50 (MDA-MB-435): 85.1 µM; TGI (MDA-MB-435): > 100 µM; GI50 (MOLT-4 leukemia): 13.3 µM; TGI (MOLT-4 leukemia): 48.7 µM; GI50 (NCI-H226 lung): > 100 µM; TGI (NCI-H226 lung): > 100 µM; GI50 (NCI-H23 lung): 48.5 µM; TGI (NCI-H23 lung): > 100 µM; GI50 (NCI-H460 lung): > 100 µM; TGI (NCI-H460 lung): > 100 µM; GI50 (NCI-H522 lung): > 100 µM; TGI (NCI-H522 lung): > 100 µM; GI50 (NCI/ADR-RES ovarian): 74.1 µM; TGI (NCI/ADR-RES ovarian): > 100 µM; GI50 (OVCAR-3 ovarian): > 100 µM; TGI (OVCAR-3 ovarian): > 100 µM; GI50 (OVCAR-4 ovarian): > 100 µM; TGI (OVCAR-4 ovarian): > 100 µM; GI50 (OVCAR-5 ovarian): > 100 µM; TGI (OVCAR-5 ovarian): > 100 µM; GI50 (OVCAR-8 ovarian): > 100 µM; TGI (OVCAR-8 ovarian): > 100 µM; GI50 (PC-3 prostate): 27.4 µM; TGI (PC-3 prostate): > 100 µM; GI50 (RPMI-8226 leukemia): 7.83 µM; TGI (RPMI-8226 leukemia): > 100 µM; GI50 (SF-268 CNS): 70.9 µM; TGI (SF-268 CNS): > 100 µM; GI50 (SF-295 CNS): 89.4 µM; TGI (SF-295 CNS): > 100 µM; GI50 (SF-539 CNS): > 100 µM; TGI (SF-539 CNS): > 100 µM; GI50 (SK-MEL-2 melanoma): 55.2 µM; TGI (SK-MEL-2 melanoma): > 100 µM; GI50 (SK-MEL-28 melanoma): 22.4 µM; TGI (SK-MEL-28 melanoma): 56.4 µM; GI50 (SK-MEL-5 melanoma): 4.98 µM; TGI (SK-MEL-5 melanoma): 23.3 µM; GI50 (SK-OV-3 ovarian): > 100 µM; TGI (SK-OV-3 ovarian): > 100 µM; GI50 (SN12C renal): > 100 µM; TGI (SN12C renal): > 100 µM; GI50 (SNB-19 CNS): > 100 µM; TGI (SNB-19 CNS): > 100 µM; GI50 (SNB-75 CNS): > 100 µM; TGI (SNB-75 CNS): > 100 µM; GI50 (SW-620 colon): 28.3 µM; TGI (SW-620 colon): > 100 µM; GI50 (T-47D breast): 6.46 µM; TGI (T-47D breast): > 100 µM; GI50 (TK-10 renal): > 100 µM; TGI (TK-10 renal): > 100 µM; GI50 (U251 CNS): > 100 µM; TGI (U251 CNS): > 100 µM; GI50 (UACC-257 melanoma): 16.6 µM; TGI (UACC-257 melanoma): 84.3 µM; GI50 (UACC-62 melanoma): > 100 µM; TGI (UACC-62 melanoma): > 100 µM; GI50 (UO-31 renal): 33.5 µM; TGI (UO-31 renal): > 100 µM
